From patent US8686150B2 (Sanofi, priority 2011, dated 2014) come the findings set out here.

Molecules are shown by their SMILES.

T1 sequence (P05771 1-673 isoform P05771-2): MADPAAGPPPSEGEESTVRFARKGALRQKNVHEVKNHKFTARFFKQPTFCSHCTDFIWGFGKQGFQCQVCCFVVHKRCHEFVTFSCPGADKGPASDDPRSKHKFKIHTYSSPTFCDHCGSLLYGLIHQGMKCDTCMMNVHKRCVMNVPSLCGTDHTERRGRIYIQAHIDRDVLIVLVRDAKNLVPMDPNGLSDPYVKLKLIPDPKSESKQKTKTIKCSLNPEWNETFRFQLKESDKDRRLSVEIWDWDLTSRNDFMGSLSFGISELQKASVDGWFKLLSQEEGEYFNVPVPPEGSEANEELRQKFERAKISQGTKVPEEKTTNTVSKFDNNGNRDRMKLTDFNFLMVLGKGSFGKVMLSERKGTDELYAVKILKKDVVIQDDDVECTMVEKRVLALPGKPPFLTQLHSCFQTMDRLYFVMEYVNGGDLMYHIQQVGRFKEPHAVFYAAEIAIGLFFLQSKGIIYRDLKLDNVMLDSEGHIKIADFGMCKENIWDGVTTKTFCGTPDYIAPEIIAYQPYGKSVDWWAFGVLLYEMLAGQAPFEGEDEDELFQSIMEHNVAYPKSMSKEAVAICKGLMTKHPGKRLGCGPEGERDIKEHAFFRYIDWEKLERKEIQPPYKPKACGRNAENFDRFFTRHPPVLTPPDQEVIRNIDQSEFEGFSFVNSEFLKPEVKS

The assay has as its target T1, human full-length recombinant PKC βII (Homo sapiens, UniProt P05771).
T1 construct: Active human full-length recombinant PKC βII; purchased Invitrogen GmbH, Darmstadt, Germany
The assay can be described thus: Determination of PKC βII inhibition (Caliper mobility-shift kinase assay, Fluorescein-RFARKGSLRQKNV peptide substrate). It counts as biochemical. The following applies: example compounds at a final concentration of 1.14 μM (±0.15 μM). Summed up: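 Full-length PKC βII (30 ng/ml in pre-dilution) with PS/DAG/Ca2+ activators, pH 7.4; fluorescein peptide and ATP at 3 μM and 120 μM before mixing. Reaction ran 60 min at 32 °C, was EDTA-stopped, and was read by mobility shift. % inhibition came from product/(substrate+product) peak heights, tested at 1.14 μM final.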
On to `CCc1n[nH]c2nc(-c3ccc(O)cc3)cc(C(=O)NC3CCCN(C)C3)c12` (stereo not drawn) [Example 180, 3-Ethyl-6-(4-hydroxy-phenyl)-1H-pyrazolo[3,4-b]pyridine-4-carboxylic acid (1-methyl-piperidin-3-yl)-amide], for which the inhibition (usually the relative decrease from the control value, in per cent) at 1.14 µM was determined as 53%.

In the case of `Cc1cc(O)ccc1-c1cc(C(=O)N2CCNCC2c2cccc(F)c2)c2c(C)n[nH]c2n1` (stereo not drawn) [Example 147, [2-(3-Fluoro-phenyl)-piperazin-1-yl]-[6-(4-hydroxy-2-methyl-phenyl)-3-methyl-1H-pyrazolo[3,4-b]pyridin-4-yl]-methanone], the inhibition at 1.14 µM stood at 96%.

On to `Cc1n[nH]c2nc(-c3ccc(O)c(F)c3)cc(C(=O)N3C[C@]4(C)CN(C)C[C@](C)(C3)C4O)c12` (stereo partly drawn) [Example 334, [6-(3-Fluoro-4-hydroxy-phenyl)-3-methyl-1H-pyrazolo[3,4-b]pyridin-4-yl]-((1S,5R)-9-hydroxy-1,5,7-trimethyl-3,7-diaza-bicyclo[3.3.1]non-3-yl)-methanone], for which the inhibition at 1.14 µM stood at 53%.

Take `Cc1n[nH]c2nc(-c3ccc(O)c(F)c3)cc(C(=O)N3C[C@H]4CNC[C@H]4C3)c12` [Example 306, [6-(3-Fluoro-4-hydroxy-phenyl)-3-methyl-1H-pyrazolo[3,4-b]pyridin-4-yl]-(3aR,6aS)-hexahydro-pyrrolo[3,4-c]pyrrol-2-yl-methanone]: the inhibition at 1.14 µM amounted to 76%.

For `Cc1n[nH]c2nc(-c3ccc(O)cc3)cc(C(=O)N3C[C@@H](C)NC[C@H]3C)c12` [Example 83, ((2R,5R)-2,5-Dimethyl-piperazin-1-yl)-[6-(4-hydroxy-phenyl)-3-methyl-1H-pyrazolo[3,4-b]pyridin-4-yl]-methanone], the inhibition at 1.14 µM turned out to be 104%.

Take `Cc1n[nH]c2nc(-c3ccc(O)cc3)cc(C(=O)N3CC[C@H](N(C)C)C3)c12` [Example 239, ((S)-3-Dimethylamino-pyrrolidin-1-yl)-[6-(4-hydroxy-phenyl)-3-methyl-1H-pyrazolo[3,4-b]pyridin-4-yl]-methanone]: the inhibition at 1.14 µM turned out to be 78%.

As for `Cc1n[nH]c2nc(-c3ccc(O)cc3F)cc(C(=O)N3C[C@@H](C)N(Cc4ccccn4)C[C@@H]3C)c12` [Example 452, ((2S,5R)-2,5-Dimethyl-4-pyridin-2-ylmethyl-piperazin-1-yl)-[6-(2-fluoro-4-hydroxy-phenyl)-3-methyl-1H-pyrazolo[3,4-b]pyridin-4-yl]-methanone], the inhibition at 1.14 µM was 83%.

With `CCc1n[nH]c2nc(-c3ccc(O)cc3)cc(C(=O)N(C)C3CCN(C)CC3)c12` [Example 174, 3-Ethyl-6-(4-hydroxy-phenyl)-1H-pyrazolo[3,4-b]pyridine-4-carboxylic acid methyl-(1-methyl-piperidin-4-yl)-amide], the inhibition at 1.14 µM turned out to be 34%.

With `Cc1n[nH]c2nc(-c3ccc(O)cc3)cc(C(=O)NC3CCN(C)CC3)c12` [Example 220, 6-(4-Hydroxy-phenyl)-3-methyl-1H-pyrazolo[3,4-b]pyridine-4-carboxylic acid (1-methyl-piperidin-4-yl)-amide], the inhibition at 1.14 µM amounted to 88%.

For `CCCC1CN(C(=O)c2cc(-c3ccc(O)cc3F)nc3[nH]nc(C)c23)C(CCC)CN1` (stereo not drawn) [Example 441, (2,5-Dipropyl-piperazin-1-yl)-[6-(2-fluoro-4-hydroxy-phenyl)-3-methyl-1H-pyrazolo[3,4-b]pyridin-4-yl]-methanone], the inhibition at 1.14 µM came out at 96%.

As to `Cc1n[nH]c2nc(-c3ccc(O)c(F)c3)cc(C(=O)N3CC4(CCNCC4)c4ccccc43)c12` [Example 330, (1,2-Dihydro-5-spiro[3H-indole-3,4′-piperidin]-1-yl)-[6-(3-fluoro-4-hydroxy-phenyl)-3-methyl-1H-pyrazolo[3,4-b]pyridin-4-yl]-methanone], the inhibition at 1.14 µM was 45%.

Regarding `COc1ccc(C2CNCCN2C(=O)c2cc(-c3ccc(O)cc3)nc3[nH]nc(C)c23)cc1` (stereo not drawn) [Example 69, [6-(4-Hydroxy-phenyl)-3-methyl-1H-pyrazolo[3,4-b]pyridin-4-yl]-[2-(4-methoxy-phenyl)-piperazin-1-yl]-methanone], the inhibition at 1.14 µM was 100%.

With `Cc1n[nH]c2nc(-c3ccc(O)cc3)cc(C(=O)NC3CCCN(C)C3)c12` (stereo not drawn) [Example 275, 6-(4-Hydroxy-phenyl)-3-methyl-1H-pyrazolo[3,4-b]pyridine-4-carboxylic acid (1-methyl-piperidin-3-yl)-amide], the inhibition at 1.14 µM is 89%.

In the case of `O=C(c1cc(-c2ccc(O)cc2)nc2[nH]nc(C3CC3)c12)N1CCNCC1` [Example 55, [3-Cyclopropyl-6-(4-hydroxy-phenyl)-1H-pyrazolo[3,4-b]pyridin-4-yl]-piperazin-1-yl-methanone], the inhibition at 1.14 µM is 27%.

Consider `Cc1n[nH]c2nc(-c3ccc(O)cc3)cc(C(=O)NCCN(C)C)c12` [Example 38, 6-(4-Hydroxy-phenyl)-3-methyl-1H-pyrazolo[3,4-b]pyridine-4-carboxylic acid (2-dimethylamino-ethyl)-amide], for which the inhibition at 1.14 µM was determined as 80%.

With `Cc1n[nH]c2nc(-c3ccc(O)cc3)cc(C(=O)N3CCNC(C)C3)c12` (stereo not drawn) [Example 221, [6-(4-Hydroxy-phenyl)-3-methyl-1H-pyrazolo[3,4-b]pyridin-4-yl]-(3-methyl-piperazin-1-yl)-methanone], the inhibition at 1.14 µM was found to be 100%.

Turning to `Cc1n[nH]c2nc(-c3ccc(O)cc3)cc(C(=O)N3CCC4(CCNC4)C3)c12` (stereo not drawn) [Example 256, (2,7-Diaza-spiro[4.4]non-2-yl)-[6-(4-hydroxy-phenyl)-3-methyl-1H-pyrazolo[3,4-b]pyridin-4-yl]-methanone], the inhibition at 1.14 µM was found to be 86%.

As for `Cc1n[nH]c2nc(-c3ccc(O)c(F)c3)cc(C(=O)N3CCNCC3)c12` [Example 7, [6-(3-Fluoro-4-hydroxy-phenyl)-3-methyl-1H-pyrazolo[3,4-b]pyridin-4-yl]-piperazin-1-yl-methanone], the inhibition at 1.14 µM came out at 91%.

In the case of `Cc1n[nH]c2nc(-c3ccc(O)cc3F)cc(C(=O)N3CCNC(C)(C)C3)c12` [Example 425, (3,3-Dimethyl-piperazin-1-yl)-[6-(2-fluoro-4-hydroxy-phenyl)-3-methyl-1H-pyrazolo[3,4-b]pyridin-4-yl]-methanone], the inhibition at 1.14 µM was 88%.

For the compound `Cc1n[nH]c2nc(-c3ccc(O)cc3)cc(C(=O)N3CC(CN)C3)c12` [Example 90, (3-Aminomethyl-azetidin-1-yl)-[6-(4-hydroxy-phenyl)-3-methyl-1H-pyrazolo[3,4-b]pyridin-4-yl]-methanone], the inhibition at 1.14 µM stood at 96%.

As for `CO[C@H]1CNC[C@@H]1NC(=O)c1cc(-c2ccc(O)cc2)nc2[nH]nc(C)c12` [Example 213, 6-(4-Hydroxy-phenyl)-3-methyl-1H-pyrazolo[3,4-b]pyridine-4-carboxylic acid ((3S,4S)-4-methoxy-pyrrolidin-3-yl)-amide], the inhibition at 1.14 µM is 94%.

As for `Cc1n[nH]c2nc(-c3ccc(O)cc3)cc(C(=O)NCC(c3ccccc3)N3CCOCC3)c12` (stereo not drawn) [Example 394, 6-(4-Hydroxy-phenyl)-3-methyl-1H-pyrazolo[3,4-b]pyridine-4-carboxylic acid (2-morpholin-4-yl-2-phenyl-ethyl)-amide], the inhibition at 1.14 µM is 23%.

Regarding `Cc1n[nH]c2nc(-c3ccc(O)c(F)c3)cc(C(=O)NC3CN4CCC3CC4)c12` (stereo in doubt) [Example 317, (S)-6-(3-Fluoro-4-hydroxy-phenyl)-3-methyl-1H-pyrazolo[3,4-b]pyridine-4-carboxylic acid (1-aza-bicyclo[2.2.2]oct-3-yl)-amide], the inhibition at 1.14 µM amounted to 68%.

Turning to `CCc1n[nH]c2nc(-c3ccc(O)cc3)cc(C(=O)N[C@@H]3CCC(=O)NC3)c12` [Example 185, 3-Ethyl-6-(4-hydroxy-phenyl)-1H-pyrazolo[3,4-b]pyridine-4-carboxylic acid ((R)-6-oxo-piperidin-3-yl)-amide], the inhibition at 1.14 µM stood at 34%.

Take `Cc1n[nH]c2nc(-c3ccc(O)cc3)cc(C(=O)N3CCNCC3Cc3ccccc3)c12` (stereo not drawn) [Example 217, (2-Benzyl-piperazin-1-yl)-[6-(4-hydroxy-phenyl)-3-methyl-1H-pyrazolo[3,4-b]pyridin-4-yl]-methanone]: the inhibition at 1.14 µM stood at 93%.

Take `Cc1n[nH]c2nc(-c3cc(F)c(O)c(F)c3)cc(C(=O)N3CCNC[C@@H]3C)c12` [Example 16, [6-(3,5-Difluoro-4-hydroxy-phenyl)-3-methyl-1H-pyrazolo[3,4-b]pyridin-4-yl]-((S)-2-methyl-piperazin-1-yl)-methanone]: the inhibition at 1.14 µM turned out to be 69%.

For `Cc1n[nH]c2nc(-c3ccc(O)cc3F)cc(C(=O)N3CCNCC3(C)C)c12` [Example 56, (2,2-Dimethyl-piperazin-1-yl)-[6-(2-fluoro-4-hydroxy-phenyl)-3-methyl-1H-pyrazolo[3,4-b]pyridin-4-yl]-methanone], the inhibition at 1.14 µM came out at 96%.

Take `Cc1n[nH]c2nc(-c3ccc(O)c(F)c3)cc(C(=O)NC3CN4CCC3CC4)c12` (stereo in doubt) [Example 361, (R)-6-(3-Fluoro-4-hydroxy-phenyl)-3-methyl-1H-pyrazolo[3,4-b]pyridine-4-carboxylic acid (1-aza-bicyclo[2.2.2]oct-3-yl)-amide]: the inhibition at 1.14 µM was determined as 50%.

For the compound `CCC1(CC)CNC(C)(C)CN1C(=O)c1cc(-c2ccc(O)cc2F)nc2[nH]nc(C)c12` [Example 450, (2,2-Diethyl-5,5-dimethyl-piperazin-1-yl)-[6-(2-fluoro-4-hydroxy-phenyl)-3-methyl-1H-pyrazolo[3,4-b]pyridin-4-yl]-methanone], the inhibition at 1.14 µM is 100%.

With `Cc1n[nH]c2nc(-c3ccc(O)c(F)c3)cc(C(=O)NCCC3CCCN3C)c12` (stereo not drawn) [Example 316, 6-(3-Fluoro-4-hydroxy-phenyl)-3-methyl-1H-pyrazolo[3,4-b]pyridine-4-carboxylic acid [2-(1-methyl-pyrrolidin-2-yl)-ethyl]-amide], the inhibition at 1.14 µM turned out to be 51%.
